# Read-outs that look alike come from different tables or passages of the source.
# How the values were obtained:
# [1] = cited from earlier work
# [2] = test system: AmB resistant Candida strain (ATCC 200955); experiment: Microdilution and fungicidal assay, AmB resistant strain; format: cell-based, Candida albicans; conditions: Day10
# Experimental: Each formulation was tested at 5.0-0.01 μg/ml with 2-fold dilutions. […] B. & C. Antifungal activity on Day 10 post AmB formulation in WT and AmB resistant Candida strains, respectively. Each experiment was performed in triplicates.
# [3] = test system: wild type (WT) Candida albicans (ATCC90028); experiment: Microdilution (CLSI) and recovery assay, antifungal/fungicidal activity; format: cell-based; conditions: for MFC: recovery assay
# Experimental: FIG. 5: Antifungal activity of amphotericin B formulations. […] Each formulation was tested at 5.0-0.01 μg/ml with 2-fold dilutions. Color bar represents relative growth. A. Antifungal activity on Day 1 post AmB formulation in wild type (WT) Candida. B. & C. Antifungal activity on Day 10 post AmB formulation in WT and AmB resistant Candida strains, respectively. Each experiment was performed in triplicates.
# In vitro fungicidal activity: A microdilution experiment was performed in wild type (WT) Candida albicans (ATCC90028) and Aspergillus fumigatus (ATCC 204305) as per Clinical & Laboratory Standards Institute (CLSI) protocols^37-39. […] Recovery assay was performed for fungicidal activity at both day 1 and day 10 post preparation.
# [4] = Lipid screening: solubility/dispersibility of amphotericin B in lipids; format: physicochemical
# Experimental: Lipid screening is a crucial step, in order to select the lipids with the highest drug solubility and/or dispersibility. Amphotericin B (1 mg) was added to the lipid at 75° C., upon stirring at 2000 rpm for 10 mins, and observed with naked eye as well as under the microscope for precipitation/aggregation. Amphotericin B has a relatively higher solubility at elevated temperature in Precirol™ ATO 5 (glyceryl palmitostearate) in comparison with the other lipids, such as Compritol® ATO 888 (glyceryl behenate), stearic acid, glyceryl mono stearate (GMS) and glyceryl di-stearate (Table 1). […] While screening liquid lipids, amphotericin B better dispersed/solubilized in castor oil (Table 1).
# [5] = test system: retinal pigmented epithelial cells (ATCC ARPE-19); format: cell-based
# Experimental: In vitro cytotoxicity evaluation: The placebo (no Amphotericin B) formulations PEG-NLC and NLC alone were tested for cytotoxicity towards the retinal pigmented epithelial cells (ATCC ARPE-19) in a concentration range of 0.03%-1%. […] They were not cytotoxic to ARPE-19 cells up to a highest concentration of 30 μg/mL, indicating a high therapeutic index.
# [6] = amphotericin B (1 mg) added to the solid lipid at 75° C., 2000 rpm for 10 mins
compound,measurement,setting,value
"C[C@@H]1[C@H](O)[C@@H](C)/C=C/C=C/C=C/C=C/C=C/C=C/C=C/[C@H](O[C@@H]2O[C@H](C)[C@@H](O)[C@H](N)[C@@H]2O)C[C@@H]2O[C@](O)(C[C@@H](O)C[C@@H](O)[C@H](O)CC[C@@H](O)C[C@@H](O)CC(=O)O[C@H]1C)C[C@H](O)[C@H]2C(=O)O [AmB, Amphotericin B]",log P,[1],0.8
same,"solubility in water, methanol, and ethanol",[1],practically insoluble
same,MFC,[2],2.5 µg/mL
same,MIC,[2],2.5 µg/mL
same,MIC,[3]; Day1 post preparation,0.62/0.62 μg/mL
same,MFC,[3]; Day1 post preparation,1.25/1.25 μg/mL
same,MIC,[3]; Day10 post preparation,0.62/0.62 μg/mL
same,MFC,[3]; Day10 post preparation,1.25/1.25 μg/mL
"CCCCCCCCCCCCCC(=O)OCC(COC(=O)CCCCCCCCCCCCC)OC(=O)CCCCCCCCCCCCC [Dynasan 114, glyceryl trimyristate]",Solubility/Dispersion (Solid Lipid),[4]; [6],−
"CCCCCCCCCCCCCCCC(=O)OCC(COC(=O)CCCCCCCCCCCCCCC)OC(=O)CCCCCCCCCCCCCCC [Dynasan 116, glyceryl tripalmitate]",Solubility/Dispersion (Solid Lipid),[4]; [6],−
"CCCCCCCCCCCCCCCCCC(=O)OCC(O)CO (stereo not shown) [GMS, glyceryl mono stearate]",Solubility/Dispersion (Solid Lipid),[4],−
CCCCCCCC/C=C\CCCCCCCC(=O)O [Oleic acid],Solubility/Dispersion (Liquid Lipid),[4],−
Castor Oil,Solubility/Dispersion (Liquid Lipid),[4],+
Sesame Oil,Solubility/Dispersion (Liquid Lipid),[4],−
Soy bean oil,Solubility/Dispersion (Liquid Lipid),[4],−
benzalkonium chloride,IC50 (cytotoxicity),[5],3.9 µg/mL
